From US10131644B2, “Aryl sultam derivatives as RORc modulators” (Genentech, Inc., priority 2014, dated 2018)

target: T1, RORc (Homo sapiens, UniProt P51449); experiment: In vitro RORc ligand binding assay (25-[3H]hydroxycholesterol displacement); settings: IC50, IC50 values for RORc; unit inferred
T1 sequence (P51449 269-508 limits assumed): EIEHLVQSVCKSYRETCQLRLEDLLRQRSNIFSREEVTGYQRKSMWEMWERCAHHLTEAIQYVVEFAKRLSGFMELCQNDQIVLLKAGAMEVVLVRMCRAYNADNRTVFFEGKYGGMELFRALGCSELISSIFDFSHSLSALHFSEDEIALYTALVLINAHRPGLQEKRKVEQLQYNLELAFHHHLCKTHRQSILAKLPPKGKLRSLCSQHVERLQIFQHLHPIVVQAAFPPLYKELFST
Procedure: This assay was used to determine a compound's potency in inhibiting activity of RORc by determining, Kiapp, IC50, or percent inhibition values.
On day of the assay, 100 uL of 0.05% CHAPS (in deionized H2O) was added to all wells of the GFB Unifilter plate and allowed soak for 1 h. A wash buffer of 50 mM HEPES (pH 7.4), 150 mM NaCl, and 5 mM MgCl2 was prepared to wash the filter plate. To prepare an assay buffer, BSA was added to the wash buffer to reach 0.01% and DTT was added to reach 1 mM.
The 20× compound stocks were diluted in DMSO with Assay Buffer 4-fold to reach 5× the final test concentration in 25% DMSO (10 uL compound+30 uL Assay Buffer). Solutions were mixed by aspiration several times with a pipette set on 50 uL volume. For the assay, 10 uL of 5× compound stock solutions in 25% DMSO were added to the assay plate in duplicate.
For two point screening, 10 mM stock compound solutions were diluted in DMSO to obtain 200 uM (20× the high test concentration) and then diluted 10-fold further to reach 20 uM (20× the low test concentration). The 20× stocks were diluted 4-fold with Assay Buffer (10 uL compound+30 uL Assay Buffer) to reach 5× the test concentrations (50 uM and 5 uM) and 10 uL were added to two assay plates for the duplicate wells. With each concentration tested on 2 plates, each set of 80 compounds used 4 assay plates (1 uM and 10 uM, with n=2).
For 25-hydroxycholesterol in 25% DMSO/75% Assay Buffer; 10 uL per well was used for NSB samples. Wells for Total Binding and No Receptor sample determination contained 10 uL of 25% DMSO/75% Assay Buffer per well.
Add 20 uL to all wells to reach 6 nM final in the assay.
Stock receptor solution was diluted in assay buffer to obtain 1.5 ug/mL in Assay Buffer. 20 uL was added to all wells. For No R samples, 20 uL Assay Buffer was substituted for receptor solution.
Assay plates were 96-well polypropylene V-bottom plates. 10 uL of 5× compound in 25% DMSO/75% Assay Buffer was added to Test wells. 10 uL of 25% DMSO/75% Assay Buffer was added to Total Binding or No Receptor wells. 10 uL of 5 uM 25-hydroxycholesterol in 25% DMSO/75% Assay Buffer was added to NSB wells. […] 20 uL of 1.5 ug/mL RORc receptor was added to wells (or 40 uL Assay Buffer to No R wells). Following addition to the wells, the plates were incubated 3 h at 25° C.
Using a Packard Filtermate Harvester, the filter plate were washed 4 times following transfer of the incubated samples. Plates were dry-filtered completely (2 h at 50° C. or overnight at room temperature). 50 uL Microscint 0 was added to all wells and read on Topcount protocol Inverted.
For NSB wells, 1 uM 25-hydroxycholesterol was also present.

IC50 [nM]	Structure (SMILES)
46	C[C@H]1CC[C@H](c2ccccc2)S(=O)(=O)N1Cc1ccc(C2(COCCO)CCOCC2)cc1F [Compound 83, 2-[[4-[3-fluoro-4-[[(3S,6R)-3-methyl-1,1-dioxo-6-phenyl-thiazinan-2-yl]methyl]phenyl]tetrahydropyran-4-yl]methoxy]ethanol]
49.2	C[C@H]1CC[C@H](c2ccccc2)S(=O)(=O)N1Cc1ccc(C2(CCC(=O)O)CCOCC2)cc1F [Compound 84, 3-[4-[3-fluoro-4-[[(3S,6R)-3-methyl-1,1-dioxo-6-phenyl-thiazinan-2-yl]methyl]phenyl]tetrahydropyran-4-yl]propanoic acid]
10.5	C[C@H]1CC[C@H](c2ccccc2)S(=O)(=O)N1Cc1ccc(C2(CCC(=O)N(C)C)CCOCC2)cc1F [Compound 85, 3-[4-[3-fluoro-4-[[(3S,6R)-3-methyl-1,1-dioxo-6-phenyl-thiazinan-2-yl]methyl]phenyl]tetrahydropyran-4-yl]-N,N-dimethyl-propanamide]
7.8	C[C@H]1CC[C@H](c2ccccc2)S(=O)(=O)N1Cc1ccc(C2(CCC#N)CCOCC2)cc1F [Compound 86, 3-[4-[3-fluoro-4-[[(3S,6R)-3-methyl-1,1-dioxo-6-phenyl-thiazinan-2-yl]methyl]phenyl]tetrahydropyran-4-yl]propanenitrile]
8.8	C[C@H]1CC[C@H](c2ccccc2)S(=O)(=O)N1Cc1ccc(C2(CCC(N)=O)CCOCC2)cc1F [Compound 87, 3-[4-[3-fluoro-4-[[(3S,6R)-3-methyl-1,1-dioxo-6-phenyl-thiazinan-2-yl]methyl]phenyl]tetrahydropyran-4-yl]propanamide]
14.8	CNC(=O)CCC1(c2ccc(CN3[C@@H](C)CC[C@H](c4ccccc4)S3(=O)=O)c(F)c2)CCOCC1 [Compound 88, 3-[4-[3-fluoro-4-[[(3S,6R)-3-methyl-1,1-dioxo-6-phenyl-thiazinan-2-yl]methyl]phenyl]tetrahydropyran-4-yl]-N-methyl-propanamide]
376	C[C@H]1CC[C@H](c2ccccc2)S(=O)(=O)N1Cc1ccc(C2(CC(N)=O)CCOCC2)cc1F [Compound 89, 2-[4-[3-fluoro-4-[[(3S,6R)-3-methyl-1,1-dioxo-6-phenyl-thiazinan-2-yl]methyl]phenyl]tetrahydropyran-4-yl]acetamide]
67	COCC1(c2ccc(CN3[C@@H](C)CC[C@H](c4ccccc4)S3(=O)=O)c(F)c2)CCOCC1 [Compound 90, (3S,6R)-2-[[2-fluoro-4-[4-(methoxymethyl)tetrahydropyran-4-yl]phenyl]methyl]-3-methyl-6-phenyl-thiazinane 1,1-dioxide]
103	COCCCOCC1(c2ccc(CN3[C@@H](C)CC[C@H](c4ccccc4)S3(=O)=O)c(F)c2)CCOCC1 [Compound 91, (3S,6R)-2-[[2-fluoro-4-[4-(3-methoxypropoxymethyl)tetrahydro-pyran-4-yl]phenyl]methyl]-3-methyl-6-phenyl-thiazinane 1,1-dioxide]
75.8	C[C@H]1CC[C@H](c2ccccc2)S(=O)(=O)N1Cc1ccc(C2(COCCCO)CCOCC2)cc1F [Compound 92, 3-[[4-[3-fluoro-4[[(3S,6R)-3-methyl-1,1-dioxo-6-phenyl-thiazinan-2-yl]methyl]phenyl]tetrahydropyran-4-yl]methoxy]propan-1-ol]
37.8	C[C@H]1CC[C@H](c2ccccc2)S(=O)(=O)N1Cc1ccc(C2(/C(N)=N\O)CCOCC2)cc1F [Compound 93, 4-[3-fluoro-4-[[(3S,6R)-3-methyl-1,1-dioxo-6-phenyl-thiazinan-2-yl]methyl]phenyl]-N′-hydroxy-tetrahydropyran-4-carboxamidine]
93.2	CC(=O)NC1(c2ccc(CN3[C@@H](C)CC[C@H](c4ccccc4)S3(=O)=O)c(F)c2)CCOCC1 [Compound 94, N-[4-[3-fluoro-4-[[(3S,6R)-3-methyl-1,1-dioxo-6-phenyl-thiazinan-2-yl]methyl]phenyl]tetrahydropyran-4-yl]acetamide]
122	C[C@H]1CC[C@H](c2ccccc2)S(=O)(=O)N1Cc1ccc(C2(NC(=O)CO)CCOCC2)cc1F [Compound 95, N-[4-[3-fluoro-4-[[(3S,6R)-3-methyl-1,1-dioxo-6-phenyl-thiazinan-2-yl]methyl]phenyl]tetrahydropyran-4-yl]-2-hydroxy-acetamide]
214	C[C@H]1CC[C@H](c2ccccc2)S(=O)(=O)N1Cc1cc(F)c(C2(C(=O)O)CCOCC2)cc1F [Compound 96, 4-[2,5-difluoro-4-[[(3S,6R)-3-methyl-1,1-dioxo-6-phenyl-thiazinan-2-yl]methyl]phenyl]tetrahydropyran-4-carboxylic acid]
63	C[C@H]1CC[C@H](c2ccccc2)S(=O)(=O)N1Cc1ccc(C2([C@@H](O)CO)CCOCC2)cc1F [Compound 98, (1R)-1-[4-[3-fluoro-4-[[(3S,6R)-3-methyl-1,1-dioxo-6-phenyl-thiazinan-2-yl]methyl]phenyl]tetrahydropyran-4-yl]ethane-1,2-diol]
66.4	C[C@H]1CC[C@H](c2ccccc2)S(=O)(=O)N1Cc1ccc(C2(OCCO)CCOCC2)cc1F [Compound 99, 2-[4-[3-fluoro-4-[[(3S,6R)-3-methyl-1,1-dioxo-6-phenyl-thiazinan-2-yl]methyl]phenyl]tetrahydropyran-4-yl]oxyethanol]
31	C[C@H]1CC[C@H](c2ccccc2)S(=O)(=O)N1Cc1cc(F)c(C2(C(=O)NCC#N)CCOCC2)cc1F [Compound 100, N-(cyanomethyl)-4[2,5-difluoro-4-[[(3S,6R)-3-methyl-1,1-dioxo-6-phenyl-thiazinan-2-yl]methyl]phenyl]tetrahydropyran-4-carboxamide]
9	C[C@H]1CC[C@H](c2ccccc2)S(=O)(=O)N1Cc1cc(F)c(C2(CO)CCOCC2)cc1F [Compound 101, [4-[2,5-difluoro-4-[[(3S,6R)-3-methyl-1,1-dioxo-6-phenyl-thiazinan-2-yl]methyl]phenyl]tetrahydropyran-4-yl]methanol]
37.8	C[C@H]1CC[C@H](c2ccccc2)S(=O)(=O)N1Cc1cc(F)c(C2(C(N)=O)CCOCC2)cc1F [Compound 102, 4-[2,5-difluoro-4-[[(3S,6R)-3-methyl-1,1-dioxo-6-phenyl-thiazinan-2-yl]methyl]phenyl]tetrahydropyran-4-carboxamide]
68.9	C[C@H]1CC[C@H](c2ccccc2)S(=O)(=O)N1Cc1ccc(C2([C@H](O)CO)CCOCC2)cc1F [Compound 103, (1S)-1-[4-[3-fluoro-4-[[(3S,6R)-3-methyl-1,1-dioxo-6-phenyl-thiazinan-2-yl]methyl]phenyl]tetrahydropyran-4-yl]ethane-1,2-diol]
23.8	CCOC(=O)COCC1(c2ccc(CN3[C@@H](C)CC[C@H](c4ccccc4)S3(=O)=O)c(F)c2)CCOCC1 [Compound 104, ethyl 2-[[4-[3-fluoro-4-[[(3S,6R)-3-methyl-1,1-dioxo-6-phenyl-thiazinan-2-yl]methyl]phenyl]tetrahydropyran-4-yl]methoxy]acetate]
74.9	C[C@H]1CC[C@H](c2ccccc2)S(=O)(=O)N1Cc1ccc(C2(CC#N)COC2)cc1F [Compound 105, 2-[3-[3-fluoro-4-[[(3S,6R)-3-methyl-1,1-dioxo-6-phenyl-thiazinan-2-yl]methyl]phenyl]oxetan-3-yl]acetonitrile]
137	C[C@H]1CC[C@H](c2ccccc2)S(=O)(=O)N1Cc1ccc(C2(NCCO)CCOCC2)cc1F [Compound 106, 2-[[4-[3-fluoro-4-[[(3S,6R)-3-methyl-1,1-dioxo-6-phenyl-thiazinan-2-yl]methyl]phenyl]tetrahydropyran-4-yl]amino]ethanol]
22.6	C[C@H]1CC[C@H](c2ccccc2)S(=O)(=O)N1Cc1ccc(C2(NC[C@H](O)CO)CCOCC2)cc1F [Compound 107, (2S)-3-[[4-[3-fluoro-4-[[(3S,6R)-3-methyl-1,1-dioxo-6-phenyl-thiazinan-2-yl]methyl]phenyl]tetrahydropyran-4-yl]amino]propane-1,2-diol]
50.4	C[C@H]1CC[C@H](c2ccccc2)S(=O)(=O)N1Cc1ccc(C2(NC[C@@H](O)CO)CCOCC2)cc1F [Compound 108]
116	C[C@H]1CC[C@H](c2ccccc2)S(=O)(=O)N1Cc1ccc(C2(C#N)CC2)cc1F [Compound 109, 1-[3-fluoro-4-[[(3S,6R)-3-methyl-1,1-dioxo-6-phenyl-thiazinan-2-yl]methyl]phenyl]cyclopropanecarbonitrile]
62.9	C[C@H]1CC[C@H](c2ccccc2)S(=O)(=O)N1Cc1ccc(C2(OCC(=O)O)CCOCC2)cc1F [Compound 110, 2-[4-[3-fluoro-4-[[(3S,6R)-3-methyl-1,1-dioxo-6-phenyl-thiazinan-2-yl]methyl]phenyl]tetrahydropyran-4-yl]oxyacetic acid]
138	C[C@H]1CC[C@H](c2ccccc2)S(=O)(=O)N1Cc1ccc(C2(NC(=O)C(O)CO)CCOCC2)cc1F (stereo partly drawn) [Compound 111, N-[4-[3-fluoro-4-[[(3S,6R)-3-methyl-1,1-dioxo-6-phenyl-thiazinan-2-yl]methyl]phenyl]tetrahydropyran-4-yl]-2,3-dihydroxy-propanamide]
206	C[C@H]1CC[C@H](c2ccccc2)S(=O)(=O)N1Cc1ccc(C2(CO)CC2)cc1F [Compound 112, [1-[3-fluoro-4-[[(3S,6R)-3-methyl-1,1-dioxo-6-phenyl-thiazinan-2-yl]methyl]phenyl]cyclopropyl]methanol]
5	C[C@H]1CC[C@H](c2ccccc2)S(=O)(=O)N1Cc1ccc(C2(OCC(N)=O)CCOCC2)cc1F [Compound 113, 2-[4-[3-fluoro-4-[[(3S,6R)-3-methyl-1,1-dioxo-6-phenyl-thiazinan-2-yl]methyl]phenyl]tetrahydropyran-4-yl]oxyacetamide]
